The results in this text go back to PubChem BioAssay AID1963856 (Molecular Pharmacology Branch, DTP, NCI, 2024).

For the assay, the system named is LG0567-F671-PDC KRAS tumor spheroid viability. Put plainly: Anticancer human tumor LG0567-F671-PDC patient-derived lung adenocarcinoma cell line growth inhibition [KRAS2]. The note with it: spheroids with HUVEC and MSC; for viability, T/C: stronger effect = lower value. Put shortly:
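KRAS-mutant tumor cells were grown as spheroids with HUVEC endothelial cells and human MSCs as stroma. Targeted agents were tested alone and with KRAS pathway inhibitors. Doses started at or near clinical Cmax, or 10 microM, descending half-log.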

[1] abbreviates: curve of first compound, second compound 0.1 µM.
Where [2] appears, read: curve of first compound, second compound 0.316 µM.
[3] abbreviates: curve of first compound, second compound 1 µM.
Where [4] appears, read: curve of first compound, second compound 3.16 µM.
The mark [5] stands for this setting: curve of first compound, second compound 10 µM.
[6] abbreviates: second compound 0.1 µM, first compound 0.0316 µM.
Where [7] appears, read: second compound 0.1 µM, first compound 0.1 µM.
Where [8] appears, read: second compound 0.1 µM, first compound 0.316 µM.
Setting [9] is: second compound 0.1 µM, first compound 1 µM.
Where [10] appears, read: second compound 0.1 µM, first compound 3.16 µM.
Where [11] appears, read: second compound 0.1 µM, first compound 10 µM.
The mark [12] stands for this setting: second compound 0.316 µM, first compound 0.0316 µM.
Setting [13] is: second compound 0.316 µM, first compound 0.1 µM.
[14] abbreviates: second compound 0.316 µM, first compound 0.316 µM.
Where [15] appears, read: second compound 0.316 µM, first compound 1 µM.
[16] abbreviates: second compound 0.316 µM, first compound 3.16 µM.
[17] abbreviates: second compound 0.316 µM, first compound 10 µM.
Where [18] appears, read: second compound 1 µM, first compound 0.0316 µM.
Where [19] appears, read: second compound 1 µM, first compound 0.1 µM.
The mark [20] stands for this setting: second compound 1 µM, first compound 0.316 µM.
Setting [21] is: second compound 1 µM, first compound 1 µM.
Where [22] appears, read: second compound 1 µM, first compound 3.16 µM.
[23] abbreviates: second compound 1 µM, first compound 10 µM.
Where [24] appears, read: second compound 3.16 µM, first compound 0.0316 µM.
Where [25] appears, read: second compound 3.16 µM, first compound 0.1 µM.
Where [26] appears, read: second compound 3.16 µM, first compound 0.316 µM.
The mark [27] stands for this setting: second compound 3.16 µM, first compound 1 µM.
[28] abbreviates: second compound 3.16 µM, first compound 3.16 µM.
Where [29] appears, read: second compound 3.16 µM, first compound 10 µM.
Setting [30] is: second compound 10 µM, first compound 0.0316 µM.
The mark [31] stands for this setting: second compound 10 µM, first compound 0.1 µM.
Where [32] appears, read: second compound 10 µM, first compound 0.316 µM.
Where [33] appears, read: second compound 10 µM, first compound 1 µM.
[34] abbreviates: second compound 10 µM, first compound 3.16 µM.
Where [35] appears, read: second compound 10 µM, first compound 10 µM.

“And” between values parts separate entries of the source, which are not always exact repeats. Equal entries are not always repeated. The source made the active and inactive calls. Rule for the calls: active = viability on the fitted dose curve at most 10% of control; inactive = the rest.
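Throughout, for IC50: drug exposure lasted seven days after spheroids formed for three days.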
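Throughout, for viability, T/C: drug exposure lasted seven days after spheroids formed for three days; 100% = DMSO vehicle control viability.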

In the case of `CC(C)n1nc(-c2ccc3oc(N)nc3c2)c2c(N)ncnc21`, the viability, T/C is 98.5% [middle of 5 runs] (compound 0.000316 µM) and 89.3% [middle of 5 runs] (compound 0.001 µM).
For the compound `CC1(C)CCC(CN2CCN(c3ccc(C(=O)NS(=O)(=O)c4ccc(NCC5CCOCC5)c([N+](=O)[O-])c4)c(Oc4cnc5[nH]ccc5c4)c3)CC2)=C(c2ccc(Cl)cc2)C1` + CNCc1ccccc1-c1csc(C(C)Nc2nc(C)nc3cc(OC)c(OC)cc23)c1, the IC50 under setting [1] came to 1630 nM; the concentration for half-maximal inhibition (IC50) under setting [2] was determined as 1470 nM; the IC50 under setting [3] was found to be 1420 nM; the IC50 under setting [4] is less than 31.6 nM; the IC50 under setting [5] is less than 31.6 nM. Also, the viability, T/C under setting [6] was 72.6%; the viability, T/C under setting [7] is 68.1%; the viability, T/C under setting [8] was 70.6%; the viability, T/C under setting [9] was 71.3%; the viability, T/C under setting [10] was 22%; the viability, T/C under setting [11] was 10.7%. The viability, T/C under setting [12] was 69.5%; the viability, T/C under setting [13] is 63.9%; the viability, T/C under setting [14] was 61.2%; the viability, T/C under setting [15] is 70.2%; the viability, T/C under setting [16] was 17.9%; the viability, T/C under setting [17] is 8.6%. In addition, the viability, T/C runs as follows: under setting [18], 69.4%; under setting [19], 77.7%; under setting [20], 62%; under setting [21], 64.3%; under setting [22], 18.3%; under setting [23], 2.9%. Also, the viability, T/C is 0.33% under setting [24]; 0.44% under setting [25]; 0.44% under setting [26]; 2.14% under setting [27]; 1.73% under setting [28]; 0.34% under setting [29]. Also, the viability, T/C is 0.43% under setting [30]; 0.89% under setting [31]; 0.6% under setting [32]; 0.39% under setting [33]; 2.18% under setting [34]; 0.44% under setting [35].
In the case of `Cn1nccc1Nc1nccc(-c2cc3c(s2)C(C)(C)N(CCN2CCOCC2)C3=O)n1` + CNCc1ccccc1-c1csc(C(C)Nc2nc(C)nc3cc(OC)c(OC)cc23)c1, the IC50 is, setting by setting: under setting [1], 581 nM; under setting [2], 557 nM; under setting [3], 340 nM; under setting [4], 794 nM; under setting [5], less than 31.6 nM. For the same compound, the viability, T/C reads like this: under setting [6], 83.6%; under setting [7], 68.6%; under setting [8], 59.6%; under setting [9], 44.1%; under setting [10], 31.7%; under setting [11], 32%. Further, the viability, T/C is 66.2% under setting [12]; 65.1% under setting [13]; 54.2% under setting [14]; 46% under setting [15]; 28.3% under setting [16]; 26.8% under setting [17]. Also, the viability, T/C is 66.2% under setting [18]; 66.1% under setting [19]; 49.7% under setting [20]; 35.6% under setting [21]; 29.1% under setting [22]; 26.3% under setting [23]. The viability, T/C under setting [24] was 73.9%; the viability, T/C under setting [25] was 71.7%; the viability, T/C under setting [26] was 53.3%; the viability, T/C under setting [27] is 44.7%; the viability, T/C under setting [28] is 36.6%; the viability, T/C under setting [29] is 1.09%. Also, the viability, T/C by setting is: under setting [30], 0.21%; under setting [31], 0.18%; under setting [32], 0.76%; under setting [33], 0.16%; under setting [34], 1.91%; under setting [35], 0.18%.
Regarding `Cn1ncnc1[C@H]1c2n[nH]c(=O)c3cc(F)cc(c23)N[C@@H]1c1ccc(F)cc1` + COc1cc2nc(C)nc(NC(C)c3cc(N)cc(C(F)(F)F)c3)c2cc1OC1CCOC1, the IC50 was more than 100 nM under setting [1]; more than 100 nM under setting [2]; more than 100 nM under setting [3]; more than 100 nM under setting [4]; more than 100 nM under setting [5]. The viability, T/C (second compound 0.1 µM, first compound 0.000316 µM) was 94.8%; the viability, T/C (second compound 0.1 µM, first compound 0.001 µM) is 78.3%; the viability, T/C (second compound 0.1 µM, first compound 0.00316 µM) is 74.8%; the viability, T/C (second compound 0.1 µM, first compound 0.01 µM) is 83.8%; the viability, T/C under setting [6] was 84.7%; the viability, T/C under setting [7] was 82.8%. The viability, T/C is 77.6% (second compound 0.316 µM, first compound 0.000316 µM); 74.9% (second compound 0.316 µM, first compound 0.001 µM); 61.1% (second compound 0.316 µM, first compound 0.00316 µM); 66.3% (second compound 0.316 µM, first compound 0.01 µM); 81.4% under setting [12]; 75.9% under setting [13]. Also, the viability, T/C is 75.6% (second compound 1 µM, first compound 0.000316 µM); 63.6% (second compound 1 µM, first compound 0.001 µM); 58.6% (second compound 1 µM, first compound 0.00316 µM); 49.1% (second compound 1 µM, first compound 0.01 µM); 53.7% under setting [18]; 53.8% under setting [19]. Moreover, the viability, T/C (second compound 3.16 µM, first compound 0.000316 µM) is 69.1%; the viability, T/C (second compound 3.16 µM, first compound 0.001 µM) is 70%; the viability, T/C (second compound 3.16 µM, first compound 0.00316 µM) was 67.3%; the viability, T/C (second compound 3.16 µM, first compound 0.01 µM) was 56.9%; the viability, T/C under setting [24] was 53.6%; the viability, T/C under setting [25] is 51.9%. For the same compound, the viability, T/C is, setting by setting: (second compound 10 µM, first compound 0.000316 µM) 61.3%; (second compound 10 µM, first compound 0.001 µM) 62.9%; (second compound 10 µM, first compound 0.00316 µM) 71.2%; (second compound 10 µM, first compound 0.01 µM) 54.4%; under setting [30], 51.7%; under setting [31], 53.6%.
With `CC(C)NCC(C(=O)N1CCN(c2ncnc3c2C(C)CC3O)CC1)c1ccc(Cl)cc1` (centres undefined), the viability, T/C (compound 0.0316 µM) is 101% [middle of 5 runs]; the viability, T/C (compound 0.1 µM) is 83.4% [middle of 5 runs]; the viability, T/C (compound 0.316 µM) was 65.9% [middle of 5 runs]; the viability, T/C (compound 1 µM) was 71.3% [middle of 5 runs]; the viability, T/C (compound 10 µM) was 72.5% [middle of 4 runs]. Besides, under “compound 10 µM”, the result was active. For the same compound, the IC50 (curve of compound) is > 10000 nM and 1170 nM.
